Patent US7786141B2 (Vertex Pharmaceuticals Incorporated, priority 2004, dated 2010)

How the values were obtained:
M1 muscarinic receptor = target: T1, M1 muscarinic receptor (Homo sapiens, UniProt P11229); assay: Functional mobilization of intracellular calcium (FLIPR) in M1-CHO cells; format: cell-based; details: M1 receptor, calcium mobilization; for Emax: read-out: M1 Efficacy
T1 construct: expressed in transfected cells; host or cells: CHO (M1-CHO)
T1 sequence (P11229 1-460): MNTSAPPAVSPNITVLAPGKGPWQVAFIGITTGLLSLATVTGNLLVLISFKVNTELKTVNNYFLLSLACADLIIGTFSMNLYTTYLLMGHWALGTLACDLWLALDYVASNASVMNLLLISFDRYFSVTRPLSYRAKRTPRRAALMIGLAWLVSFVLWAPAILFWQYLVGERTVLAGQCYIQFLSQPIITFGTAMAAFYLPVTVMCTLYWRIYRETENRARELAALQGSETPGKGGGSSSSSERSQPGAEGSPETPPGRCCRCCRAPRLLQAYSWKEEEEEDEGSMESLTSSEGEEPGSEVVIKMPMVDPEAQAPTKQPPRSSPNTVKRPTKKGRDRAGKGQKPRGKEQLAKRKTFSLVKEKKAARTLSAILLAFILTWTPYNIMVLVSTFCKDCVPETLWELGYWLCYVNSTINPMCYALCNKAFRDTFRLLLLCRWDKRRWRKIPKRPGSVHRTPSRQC
Procedure: (§1) Functional Mobilization of Intracellular Calcium to Determine Muscarinic Receptor Activity:
(§2) CHO cells expressing muscarinic receptors (M1 to M5) are grown as monolayers in tissue culture flasks at 37° C. in a humidified atmosphere containing 5% CO2 and passaged every 3-5 days. The growth media is Dulbecco's modified eagles medium (DMEM, Gibco Cat# 12430-054), containing 25 mM Hepes and supplemented with Fetal Bovine Serum (Hyclone, cat# SH30071.03), 0.1 mM of MEM non-essential amino acids (GIBCO, Cat# 11140-050), 1 mM MEM Sodium Pyruvate (GIBCO Cat# 11360-070) and 100 units/ml of Penicillin G and 100 μg/ml of Streptomycin (GIBCO Cat# 15140-122). The recombinant muscarinic receptor cell lines are grown under antibiotic pressure with media containing 25 μg/ml zeocin and 500 μg/ml G418 (M1-CHO), 4 μg/ml puromycin, 50 μg/ml zeocin and 2.5 μg/ml blasticidin (M2 and M4-CHO) or 50 μg/ml zeocin and 4 μg/ml puromycin (M3 and M5-CHO).
(§3) Cells are harvested at 80-90% confluence using Versene (GIBCO Cat# 15040-066), collected by centrifugation and seeded 18-24 hrs prior to running the calcium assay at a density of 5,000 cells/well in back-walled, clear-bottomed 384-well plates (BD Biocoat, poly-D-lysine, Cat#356663). The day of the experiment, the cells are washed with a plate washer (Bioteck Instruments, ELX 405) using bath 1 buffer (140-mM NaCl, 4.5-mM KCl, 2-mM CaCl2, 1-mM MgCl2, 10-mM Hepes-Na, 10-mM Glucose, pH 7.4, with NaOH) containing 1 mM Probenecid. Next, the calcium dye Fluo-3 (25 μl/well of Fluo-3 AM at 4 μM, Molecular Probes F-1241, in Bath 1 buffer containing 1 mM Probenecid) is added to the 25 μl of Bath 1 remaining in each well after the plate wash and the dye is loaded at 37° C. in the tissue culture incubator for 60-90 min. The fluorescent dye is removed using the plate washer with Bath 1 containing 1 mM Probenecid, leaving 25 μl/well of this solution after the wash. Alternatively, cells can be loaded with the calcium indicator from Molecular Devices (Calcium 3 Assay Reagents, Cat # R7181) adding 5 μl of a 5× solution dye in Bath 1 containing 1 mM Probenecid (10 ml per dye flask cat# R7182 to generate a solution 20×) to 20 μl of the same buffer. After loading for 60 min, the experiment can be run without having to remove the dye.
(§4) Compounds are prepared at a 2× fold concentration in a 96-well plate (round bottom, Costar Corning cat# 3656), by reconstituting the pre-spotted compounds in bath 1 containing 1 mM probenecid. The final concentration DMSO is 0.5%, and the amount of DMSO is normalized across the assay plate. To determine an agonist action of the compounds on muscarinic receptors, the reconstituted compounds are added (25 μl compound/well) to the cell assay plate (containing 25 μl/well) using the multi-channel robotic system of the FLIPR 3 Instrument (Molecular Devices, Sunnyvale, Calif.). To determine a functional inhibitory action of the compounds on muscarinic receptors, the reconstituted compounds are added (25 μl compound/well) to the assay plate and pre-incubated for 15 min prior to adding 25 μl of Carbachol at 3× the EC80 for each muscarinic subtype. Alternatively, the compounds can be co-applied simultaneously with the agonist. In both assay modes, the fluorescence is recorded for 60 sec (excitation wavelength is […] and emission wavelength 540 nm) using the FLIPR 3 instrument.
(§5) The potency, efficacy and selectivity of the muscarinic compounds were evaluated by screening the compound activity across the whole family (M1 to M5 cells). Compounds were also screened for activity on other proteins such as other GPCRs and ion channels to determine selectivity on M4 receptors.

M4 muscarinic receptor = target: T2, M4 muscarinic receptor (Homo sapiens, UniProt P08173); assay: Functional mobilization of intracellular calcium (FLIPR) in M4-CHO cells; format: cell-based; details: M4 receptor, calcium mobilization; for Emax: read-out: M4 Efficacy
T2 construct: expressed in transfected cells; host or cells: CHO (M4-CHO)
T2 sequence (P08173 1-479): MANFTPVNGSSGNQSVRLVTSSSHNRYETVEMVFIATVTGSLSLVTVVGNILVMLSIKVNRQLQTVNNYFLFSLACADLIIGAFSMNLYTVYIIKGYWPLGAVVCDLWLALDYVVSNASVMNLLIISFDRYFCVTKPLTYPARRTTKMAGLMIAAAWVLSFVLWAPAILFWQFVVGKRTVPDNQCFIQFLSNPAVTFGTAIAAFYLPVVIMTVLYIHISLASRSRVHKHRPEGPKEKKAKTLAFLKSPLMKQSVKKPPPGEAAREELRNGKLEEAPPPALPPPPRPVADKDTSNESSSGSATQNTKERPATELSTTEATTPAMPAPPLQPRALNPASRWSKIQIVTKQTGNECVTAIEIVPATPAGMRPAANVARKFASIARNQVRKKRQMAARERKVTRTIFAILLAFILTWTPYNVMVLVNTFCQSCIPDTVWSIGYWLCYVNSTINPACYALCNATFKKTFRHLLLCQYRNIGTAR
Procedure: as §1, §2, §3, §4, §5

| Structure (SMILES) | M1 Activity (M1 muscarinic receptor) | Emax (M1 muscarinic receptor) | M4 Activity (M4 muscarinic receptor) | Emax (M4 muscarinic receptor) |
| --- | --- | --- | --- | --- |
| CCOC(=O)N1CCC(N2CCC3(CC2)CN(C(=O)OCC(C)(C)C)c2ccc(F)cc23)CC1 [compound 63] | xxx (activity was measured to be less than 0.1 μM) | < 65% | x (activity was measured to be greater than 1.0 μM) | < 65% |
| Clc1ccc2c(c1)C1(CCO2)CCN(C[C@H]2C[C@H]3C=C[C@H]2C3)CC1 [compound 64] | xxx (activity was measured to be less than 0.1 μM) | < 65% | xx (activity was measured to be between 0.1 μM and 1.0 μM) | < 65% |
| COCCOC(=O)N1CCCC(N2CCC3(CC2)CN(C(C)=O)c2ccc(F)cc23)CC1 (stereo not shown) [compound 65] | xx (activity was measured to be between 0.1 μM and 1.0 μM) | 65 to 85% | x (activity was measured to be greater than 1.0 μM) | < 65% |
| CCOC(=O)N1CCC(N2CCC3(CC2)CN(C(=O)c2ccc(OC(F)(F)F)cc2)c2ccc(F)cc23)CC1 [compound 66] | xxx (activity was measured to be less than 0.1 μM) | > 85% | xxx (activity was measured to be less than 0.1 μM) | > 85% |
| CC(=O)N1CC2(CCN(C3CC4CCC(C3)N4C(=O)O[C@@H]3CCOC3)CC2)c2cc(F)ccc21 (stereo partly shown) [compound 67] | xxx (activity was measured to be less than 0.1 μM) | < 65% | xx (activity was measured to be between 0.1 μM and 1.0 μM) | < 65% |
| O=C(OC1CCC1)N1C2CCC1CC(N1CCC3(CCc4ccccc43)CC1)C2 (stereo not shown) [compound 68] | xx (activity was measured to be between 0.1 μM and 1.0 μM) | < 65% | x (activity was measured to be greater than 1.0 μM) | < 65% |
| O=C(C1CCC1)N1CC2(CCN(C3CC4CCC(C3)N4C(=O)O[C@@H]3CCOC3)CC2)c2cc(F)ccc21 (stereo partly shown) [compound 69] | xx (activity was measured to be between 0.1 μM and 1.0 μM) | < 65% | xx (activity was measured to be between 0.1 μM and 1.0 μM) | < 65% |
| CS(=O)(=O)N[C@H]1CC2(CCN(C[C@H]3C[C@H]4C=C[C@H]3C4)CC2)c2ccccc21 [compound 70] | xx (activity was measured to be between 0.1 μM and 1.0 μM) | 65 to 85% | x (activity was measured to be greater than 1.0 μM) | 65 to 85% |
| COCCOC(=O)N1C2CCC1CC(N1CCC3(CC1)C(=O)Nc1ccccc13)C2 (stereo not shown) [compound 71] | xxx (activity was measured to be less than 0.1 μM) | < 65% | xx (activity was measured to be between 0.1 μM and 1.0 μM) | < 65% |
| Cc1ccc2c(c1)C1(CCN(C3C4CCCC3CCC4)CC1)CN2 (stereo not shown) [compound 72] | xxx (activity was measured to be less than 0.1 μM) | 65 to 85% | xx (activity was measured to be between 0.1 μM and 1.0 μM) | 65 to 85% |
| CCOC(=O)N1C2CCC1CC(N1CCC3(CC1)CN(C(=O)c1cc(C)oc1C)c1ccc(F)cc13)C2 (stereo not shown) [compound 73] | xxx (activity was measured to be less than 0.1 μM) | 65 to 85% | xx (activity was measured to be between 0.1 μM and 1.0 μM) | 65 to 85% |
| CCCc1ccc2c(c1)C1(CCN(C3CCN(C(=O)OCC)CC3)CC1)CN2C(C)=O [compound 74] | xxx (activity was measured to be less than 0.1 μM) | 65 to 85% | xx (activity was measured to be between 0.1 μM and 1.0 μM) | 65 to 85% |
| CC(=O)N1CC2(CCN(CC3CCCOC3)CC2)c2cc(F)ccc21 (stereo not shown) [compound 75] | xxx (activity was measured to be less than 0.1 μM) | < 65% | xx (activity was measured to be between 0.1 μM and 1.0 μM) | 65 to 85% |
| COCCOC(=O)N1C2CCC1CC(N1CCC3(CC1)CN(C(C)=O)c1ccc(F)cc13)C2 (stereo not shown) [compound 76] | xxx (activity was measured to be less than 0.1 μM) | 65 to 85% | xx (activity was measured to be between 0.1 μM and 1.0 μM) | 65 to 85% |
| CCOC(=O)N1CCC(N2CCC3(CC2)CN(C(=O)c2ccc(F)cc2)c2ccc(F)cc23)CC1 [compound 77] | xxx (activity was measured to be less than 0.1 μM) | 65 to 85% | xx (activity was measured to be between 0.1 μM and 1.0 μM) | < 65% |
| CCOC(=O)N1CCC(N2CCC3(CC2)CN(C(C)=O)c2ccc(-c4ccccc4C)cc23)CC1 [compound 78] | xxx (activity was measured to be less than 0.1 μM) | 65 to 85% | xx (activity was measured to be between 0.1 μM and 1.0 μM) | < 65% |
| CCCOC(=O)N1CCC(N2CCC3(CC2)CN(C(C)=O)c2ccc(F)cc23)CC1 [compound 79] | xx (activity was measured to be between 0.1 μM and 1.0 μM) | < 65% | x (activity was measured to be greater than 1.0 μM) | < 65% |
| COCCOC(=O)N1CC2(CCN(C3CC4CCC(C3)N4C(=O)O[C@H]3CCOC3)CC2)c2cc(F)ccc21 (stereo partly shown) [compound 80] | xx (activity was measured to be between 0.1 μM and 1.0 μM) | < 65% | xx (activity was measured to be between 0.1 μM and 1.0 μM) | < 65% |
| C#CCOC(=O)N1CCC(N2CCC3(CC2)CN(C(C)=O)c2ccc(C)cc23)CC1 [compound 81] | xx (activity was measured to be between 0.1 μM and 1.0 μM) | < 65% | x (activity was measured to be greater than 1.0 μM) | < 65% |
